In series [1] the test system is IGF-1R. In words: Angiotensin-induced activation of IGF-1R signaling in BEAS-2B. The conditions noted are these: angiotensin stimulation. The format is cell-based, human. The protocol:
(§1) Cells were washed twice with ice-cold PBS, and then lysed with a modified RIPA buffer [50 mM Tris-HCl (pH 7.4), 150 mM NaCl, 1 mM EDTA, 0.25% sodium deoxycholate, 1% Triton X-100, a protease inhibitor cocktail, 100 mM NaF, 1 mM Na3VO4]. Lysates were centrifuged at 13,000 rpm for 15 to 20 minutes to harvest supernatants, and then the collected proteins were quantified using the BCA method. Equivalent amounts of the proteins were subjected to electrophoresis using 8-15% SDS-PAGE, and then transferred to a PVDF membrane. The membrane was washed with TBST (0.01% Tween-20-containing Tris-buffered saline), and blocked in a blocking buffer (diluted in TBST to contain 5% skim milk) at room temperature for 1 hour. The membrane was incubated with primary antibodies diluted in 3% BSA-containing TBST at 4° C. for 12 hours, and washed with TBST for over 1 hour. The membrane was incubated with secondary antibodies diluted in TBST containing 3% skim milk at room temperature for 1 to 2 hours, and washed with TBST for over 1 hour. The membrane was reacted in an ECL solution, and band visualization was carried out by exposure to an X-ray film.

Another series relates to lung epithelial cells. In words: Transformation of lung epithelial cells by stress hormones. It is filed as cell-based, human. The conditions noted are these: treatment with the stress hormone alone. The protocol: Cells (2-3×10^3 cells) were seeded into 96-well plates, treated with a test drug diluted with a medium, and then incubated for 3 days. After incubation, the cells were treated with an MTT solution to have a final concentration of 200-500 μg/ml and incubated for 2 to 4 hours. After discarding the medium, produced formazan was dissolved in DMSO, and then the absorbance at 570 nm was measured. Alternatively, cells were seeded into 12- or 24-well plates, collected after a predetermined time after treatment with a test drug, and then counted using a hemocytometer. 100 to 300 cells were seeded into 6- or 12-well plates and then treated with NNK or NNK and a test drug for 2 to 3 weeks. After 2 to 3 weeks, Colony formation was observed and the colonies were counted after stained staining with crystal violet. Before the experiment, low-melting agar (final concentration of agar: 1%) was diluted with a medium, and then 1 ml of the resulting solution was added and solidified in each 24-well plate, resulting in bottom agar. 2,000 to 5,000 cells were mixed with the low melting agar (final concentration of agar: 0.35-0.4%), 500 μl of the resulting mixture was added onto each bottom agar. After solidification of the agar, the cells were treated with NNK or a test drug, which was diluted with a medium. After 2 to 4 weeks after treatment, colonies were stained with an MTT solution, observed, and then counted. Lung epithelial cells at 90 to 95% confluency were treated with a carcinogen diluted with a growth factor-free medium, or a carcinogen and a test drug. After 2 to 3 weeks, foci formation was observed.

The test system of series [2] is IGF-1R. In words: NE-mediated IGF-1R activation in lung epithelial cells. The format is cell-based, human. The protocol: as §1
The test system of another series is IGF2. In words: NE-mediated IGF2 secretion in lung epithelial cells. It is filed as cell-based, human. The protocol:
ELISA for IGF1, IGF2 and NE were performed using commercially available ELISA kits (R&D Systems, DSL or Abnova) according to the manufacturer's instruction.

The test system of a further series is mice. In words: NE (stress hormone) lung carcinogenesis model with urethane. The format is in vivo, mouse. The conditions noted are these: continuous NE exposure by micro-osmotic pump, 12 weeks, urethane 1 g/kg. How it is done:
To identify the carcinogenesis promotion by a stress hormone NE, NE (50.1 mM) or vehicle PBS was injected into micro-osmotic pumps (Alzet), and then the pumps were implanted into the backs of mice. Six weeks later, the existing pumps were removed, NE or PBS-injected new pumps were implanted into the mice, and then the mice were continuously exposed (daily exposure at a dose of 1 μmol per 100 g mouse) to NE for a total of 12 weeks. To stimulate tumorigenesis, three days after the pump implantation, urethane was administered at a dose of 1 g/kg.
For non-invasive observation of tumors before autopsy, MMPSense 680 probes were injected, and images were obtained using IVIS Spectrum microCT (PerkinElmer). After autopsy of the mice, lungs were extracted, and produced tumors were counted and embedded in paraffin to form paraffin blocks. Four or more tissue sections were prepared at regular intervals and stained by H&E staining, and then numbers and sizes of the tumors were measured to calculate volumes of the tumors. The tumor volume was calculated according to (minor axis)^2×major axis×0.5.

For the next series, the system named is FVB mouse. In words: Emphysema-induced mouse model (NNK/B[a]P). It is filed as in vivo. The conditions noted are these: FVB mice, amlodipine 0.8 mg/kg oral 6 times a week, 5 months. The protocol:
Cells were plated onto coverslips, pretreated with a drug and then treated with NNK or NE. OCT blocks were sliced to have a thickness of 4 μm and then placed onto silane-coated slides. Cells or tissue was washed with PBS, and fixed with 4% paraformaldehyde at room temperature for 30 minutes. Afterward, the cells were permeabilized with 0.1% Triton X-100, and blocked in a blocking solution. After treatment with primary antibodies at 4° C. for over 12 hours, the cells were washed with PBS several times, and then treated with fluorescence-binding secondary antibodies. Subsequently, after washing with PBS several times, the slides were mounted with a DAPI-containing mounting solution, and images were captured using a confocal microscope.
Paraffin blocks were sliced to have a thickness of 4 μm, placed onto silane-coated slides, and then dried. […]
As a method for detecting the activation degree of a protease, a matrix metalloproteinase (MMP), known as the main factor causing COPD in lung tissue, a proper amount of a reaction buffer containing fluorescein isothiocyanate (FITC)-coupled DQ gelatin was added to a slide, and reacted at 37° C. in a dark room for 12 hours. The activated MMP decomposed the DQ gelatin, resulting in fluorescence from FITC which had been inhibited, and thus the fluorescence intensity of FITC was directly proportional to MMP activity. […]

The mark [3] stands for this setting: NE-treated lung epithelial cells.

Consider three compounds from patent US11123335B2, “Method for preventing lung diseases in smokers and non-smokers using antihypertensive drug” (SEOUL NATIONAL UNIVERSITY R & DB FOUNDATION, priority 2015, dated 2021).

For the compound “angiotensin (DRVYIHPF; Angiotensin-2; UniProt P01019 25-32, looked up) [angiotensin used to stimulate BEAS-2B lung epithelial cells]”, in the series with IGF-1R [1], the “activation of IGF-1R and downstream signaling mediators Akt and ERK” value was “concentration- and time-dependently activated”.
Consider `NC[C@H](O)c1ccc(O)c(O)c1` [NE, norepinephrine], for which the “transformation of lung epithelial cells (viability, colony formation, foci formation)” value in the series on lung epithelial cells is on record as “significantly enhanced”. Also, the IGF-1R phosphorylation result in the series on IGF-1R [2] (BEAS-2B, HBE/p53i, NHBE, HB56B, NE time- or concentration-dependent) is listed as “increased”. Moreover, the IGF2 secretion result with IGF2 (lung epithelial cells treated with NE) is “increased”. In addition, the urethane-initiated lung carcinogenesis entry with mice is given as “significantly increased”.
For the compound amlodipine, the “NE-mediated IGF-1R activation” value in the series on IGF-1R [2] (setting [3]) was “inhibited”. For the same compound, in the series with FVB mouse, the “lung tissue collapse (morphology, H&E)” value is recorded as “inhibited”. In addition, the “NE-mediated IGF2 secretion” value with IGF2 (setting [3]) was “inhibited”.
